Measured values taken from US9840496B2, “CD38 inhibitors and methods of treatment” (GlaxoSmithKline Intellectual Property (No.2) Limited, priority 2014, dated 2017).

Biological target: T1, human CD38 (Homo sapiens, UniProt P28907)
T1 construct: The extracellular domain of human CD38 was expressed in pichia pastoris and purified to homogeneity; made in house; host or cells: Pichia pastoris
T1 sequence (P28907 43-300 limits assumed): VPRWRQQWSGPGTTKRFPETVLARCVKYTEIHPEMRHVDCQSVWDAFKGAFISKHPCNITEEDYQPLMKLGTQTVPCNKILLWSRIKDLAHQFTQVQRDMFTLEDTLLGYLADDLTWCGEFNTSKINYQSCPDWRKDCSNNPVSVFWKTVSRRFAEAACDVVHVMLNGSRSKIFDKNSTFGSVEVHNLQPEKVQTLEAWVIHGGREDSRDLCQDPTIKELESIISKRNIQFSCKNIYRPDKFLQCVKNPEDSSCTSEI
Experiment: human CD38 enzyme activity colorimetric assay
Format: biochemical
Settings: extracellular domain of human CD38, 0.4 nM CD38, 100 uM NAD+
Procedure: The extracellular domain of human CD38 was expressed in pichia pastoris and purified to homogeneity. The enzyme activity assay was performed in a low-volume 384-well plate in a total volume of 20 μL. A range of concentrations of test compound in 200 nL DMSO was delivered into the assay plate wells. Columns 6 and 18 of the plate contained DMSO with no compound and served as the high signal and low signal controls (no CD38 added), respectively. All additions of assay reagents to the plate were done using a Multidrop Combi, and the plate was shaken 3-5 seconds after each addition. CD38 (0.8 nM) was incubated with test compound in 10 μL containing 100 mM HEPES, pH 7.4, 4 mM EDTA, and 1 mM CHAPS for 30 minutes prior to initiation of the reaction. The reaction was initiated by a 10 μL addition containing 5 mM sodium acetate, pH 4.5, 1 mM CHAPS, 200 μM NAD+ and 500 uM GW323424X. The solutions for each of the two additions were prepared fresh each day from concentrated stocks of the individual components. […] Catalytic formation of this novel chromophore was followed in an Envision microplate reader by reading absorbance at two time points, typically 30 minutes apart within the first 45 minutes of the reaction. These time points were established empirically to ensure the rates determined were in a linear range of product formation. Data analysis was performed in the following way using ActivityBase XE (Abase XE). The data from the 15 and 45 minute reads was processed by performing a subtraction function of 45 minute read value minus 15 minute read value for each plate well. The resulting values for non-control wells were converted to % inhibition using the formula 100*((U−C1)/(C2−C1)) where U is the value of the test well, C1 is the average of the values of the high signal (column 6) control wells, and C2 is the average of the values of the low signal (column 18) control wells. Percent inhibition (y) was plotted versus inhibitor concentration (x), and curve fitting was performed with the following four parameter equation: y=A+((B−A)/(1+(10^x/10^C)^D)), where A is the minimum response, B is the maximum response, C is the log10IC50, and D is the Hill slope.

Compound	IC50
CCC(O)(CN[C@H]1CC[C@H](NC(=O)c2cc(-n3ccnc3)cc3cc[nH]c23)CC1)C(F)(F)F (stereo partly drawn) [example 1, N-((1r,4r)-4-((2-Hydroxy-2-(trifluoromethyl)butyl)amino)cyclohexyl)-5-(1Himidazol-1-yl)-1H-indole-7-carboxamide]	500 to 1000 nM
C[C@](CO)(N[C@H]1CC[C@H](NC(=O)c2cc(-n3ccnc3)cc3cc[nH]c23)CC1)C(F)(F)F [example 2, 5-(1H-Imidazol-1-yl)-N-((1R,4r)-4-(((R)-1,1,1-trifluoro-3-hydroxy-2-methylpropan-2-yl)amino)cyclohexyl)-1H-indole-7-carboxamide]	500 to 1000 nM
CC(C)c1c[nH]c2c(C(=O)N[C@H]3CC[C@H](OCC(C)(C)O)CC3)cc(-n3ccnc3)cc12 [example 3, N-((1r,4r)-4-(2-Hydroxy-2-methylpropoxy)cyclohexyl)-5-(1H-imidazol-1-yl)-3-isopropyl-1H-indole-7-carboxamide]	> 1000 nM
CNC(=O)[C@H]1CC[C@H](NC(=O)c2cc(-n3ccnc3)cc3cc[nH]c23)CC1 [example 4, 5-(1H-Imidazol-1-yl)-N-((1s,4s)-4-(methylcarbamoyl)cyclohexyl)-1H-indole-7-carboxamide]	< 500 nM
CC(O)CO[C@H]1CC[C@H](NC(=O)c2cc(-n3ccnc3)cc3cc[nH]c23)CC1 (stereo partly drawn) [example 7, N-((1r,4r)-4-(2-Hydroxypropoxy)cyclohexyl)-5-(1H-imidazol-1-yl)-1H-indole-7-carboxamide]	< 500 nM
CC(O)CO[C@H]1CC[C@H](NC(=O)c2cc(-n3ccnc3)cc3c(Cl)c[nH]c23)CC1 (stereo partly drawn) [example 8, 3-Chloro-N-((1r,4r)-4-(2-hydroxypropoxy)cyclohexyl)-5-(1H-imidazol-1-yl)-1H-indole-7-carboxamide]	500 to 1000 nM
CC(O)(CO[C@H]1CC[C@H](NC(=O)c2cc(-n3ccnc3)cc3cc[nH]c23)CC1)C(F)(F)F (stereo partly drawn) [example 9]	< 500 nM
CC(O)(CN[C@H]1CC[C@H](NC(=O)c2cc(-n3ccnc3)cc3cc[nH]c23)CC1)C(F)(F)F (stereo partly drawn) [example 10, 5-(1H-Imidazol-1-yl)-N-((1r,4r)-4-((3,3,3-trifluoro-2-hydroxy-2-methylpropyl)amino)cyclohexyl)-1H-indole-7-carboxamide]	> 1000 nM
CC(O)(C(=O)N[C@H]1CC[C@H](NC(=O)c2cc(-n3ccnc3)cc3cc[nH]c23)CC1)C(F)(F)F (stereo partly drawn) [example 11, 5-(1H-Imidazol-1-yl)-N-((1r,4r)-4-(3,3,3-trifluoro-2-hydroxy-2-methylpropanamido)cyclohexyl)-1H-indole-7-carboxamide]	< 500 nM
O=C(N[C@H]1CC[C@H](NCC(F)F)CC1)c1cc(-n2ccnc2)cc2cc[nH]c12 [example 12, N-((1r,4r)-4-((2,2-Difluoroethyl)amino)cyclohexyl)-5-(1H-imidazol-1-yl)-1H-indole-7-carboxamide]	< 500 nM
O=C(N[C@H]1CC[C@H](NCC(F)F)CC1)c1cc(-n2ccnc2)cc2c(Cl)c[nH]c12 [example 13, 3-Chloro-N-((1r,4r)-4-((2,2-difluoroethyl)amino)cyclohexyl)-5-(1H-imidazol-1-yl)-1H-indole-7-carboxamide]	> 1000 nM
CC(C)C(O)CO[C@H]1CC[C@H](NC(=O)c2cc(-n3ccnc3)cc3cc[nH]c23)CC1 (stereo partly drawn) [example 14, N-((1r,4r)-4-(2-Hydroxy-3-methylbutoxy)cyclohexyl)-5-(1H-imidazol-1-yl)-1H-indole-7-carboxamide]	< 500 nM
CC(O)(COC1CCC(NC(=O)c2cc(-n3ccnc3)cc3cc[nH]c23)CC1)C1CC1 (stereo not drawn) [example 15, N-((1r,4r)-4-(2-Cyclopropyl-2-hydroxypropoxy)cyclohexyl)-5-(1H-imidazol-1-yl)-1H-indole-7-carboxamide]	< 500 nM
C[C@@H](CS(C)(=O)=O)N[C@H]1CC[C@H](NC(=O)c2cc(-n3ccnc3)cc3cc[nH]c23)CC1 [example 16, 5-(1H-Imidazol-1-yl)-N-((1R,4r)-4-(((R)-1-(methylsulfonyl)propan-2-yl)amino)cyclohexyl)-1H-indole-7-carboxamide]	> 1000 nM
N-((1r,4r)-4-(2-Hydroxy-2-methylpropoxy)cyclohexyl)-5-(1H-imidazol-1-yl)-1H-indole-7-carboxamide [example 6]	< 500 nM
